Three compounds from patent US20060228776A1, “PINK-1 promoter” (NEUROLOGIX, INC., priority 2004, published 2006) can be followed below.

The subject of one data set is PINK1 promoter. The data set can be described thus: PINK1 promoter analysis, Dual Glo Luciferase Assay in transfected HEK293 cells. The class given is cell-based, human. The conditions noted are these: promoter alone vs no promoter (pGL2-basic) or SV40 promoter (pGL2-control); HEK293, 48 hrs; p<0.05. Here is the method: HEK293 cells were transfected with PINK1pr2220 and various controls for 48 hrs. Promoter activity was determined using Dual Glo Luciferase Assay system (Promega) and normalized against renilla luciferase.
In FIG. 3(A) the results are represented as the level of firefly luciferase activity driven by the PINK1 promoter normalized against renilla luciferase activity from a second plasmid used to control for transfection variability. Each experiment was replicated in triplicate, and the entire study was replicated on at least two separate occasions. […] Co-transfection with PTEN induced PINK1 promoter activity from 65% to 5 fold in various replicate experiments compared with PINK1 alone (**p<0.05; two-tailed t-test), while a PTEN point-mutant which lacks lipid phosphatase activity (1 mPTEN) had no effect.
Data is the result of triplicate experiments analyzed relative to promoter activity of PINK1pr2220 alone (*p<0.05; two-tailed t-test).
All plasmids were kept at constant amounts and ratios, with empty plasmid replacing constructs not used for individual studies. Data is the result of triplicate experiments analyzed relative to promoter activity of PINK1pr2220 alone (*p<0.05; two-tailed t-test).

The test system of data set [1] is human neuroblastoma SH-SY5Y. Description: Cell viability, CellTiter 96 Aqueous One Solution Cell Proliferation Assay. In kind it is cell-based. Here is the method:
(§1) SH-SY5Y cells were maintained in Dulbecco's modified medium (DMEM) supplemented with 10% FBS, 100 IU/mL penicillin and […] streptomycin at 37 °C under 5% CO2. Toxins (Sigma) were freshly prepared and added to the cultures and incubated for various lengths of time.
To measure cell viability and apoptosis CellTiter 96 Aqueous One Solution Cell Proliferation Assay (Promega) and propidium iodide (Sigma) were used, respectively.

The next data set relates to PTEN. The data set can be described thus: Western blot of p-PTEN/total PTEN ratio in toxin-treated SH-SY5Y cells. In kind it is cell-based, human. On the procedure:
as §1
(§2) Blots were incubated with antibodies against PTEN, Phospho-PTEN, and Caspase-3 (Cell Signaling) followed by secondary antibodies and enhanced chemiluminescent detection (Amersham Biosciences).
PTEN and phosphorylated PTEN (p-PTEN) were determined by using western blot analysis. FIG. 6C show PTEN activity was determined by comparing the ratio of p-PTEN/total PTEN. A decrease in p-PTEN/total PTEN is correlated with higher PTEN activity. Results were analyzed by Image J software and p-PTEN/total PTEN results were shown graphically. […] Substantia nigra pars compacta were dissected and harvested for western blot analysis as previously described.

The subject of another data set is Caspase-3. Description: Western blot of Caspase-3 active metabolite in SH-SY5Y cells. The class given is cell-based, human. The note with it: high (mM) doses of MPP+, 24 hrs. On the procedure:
as §1, §2

For the compound “PINK1 promoter: 2220bp human DNA sequence upstream of the PINK1 transcriptional start site, driving firefly luciferase”, the “PINK1 promoter activity (firefly luciferase normalized against renilla luciferase)” value with PINK1 promoter is “significant promoter activity”.
On to `C[n+]1ccc(-c2ccccc2)cc1` [MPP+], for which the cell viability result in data set [1] (MPP+ 24 hr treatment) was “reduced cell viability”. In addition, the “p-PTEN/total PTEN ratio” value is given as “No change” in the data set with PTEN (24 hrs, escalating high doses of MPP+ (mM)) and “reduction” in the data set on PTEN (low dose MPP+ (100 μM), various time points). In addition, the “cleavage of Caspase-3 active metabolites” value with Caspase-3 is “not cleaved”.
In the case of `NCCc1cc(O)c(O)cc1O` [6-OHDA, 6-hydroxydopamine], the cell viability result in data set [1] (6-OHDA) is on record as “reduced cell viability”. In addition, the “p-PTEN/total PTEN ratio” value in the data set with PTEN (n=4) is given as “lower p-PTEN/total PTEN ratio”.
